These are literature values, as cited in patent publication US20210330614A1, “PROCESS FOR MANUFACTURING PHENYLEPHRINE RESINATE PARTICLES; PHENYLEPHRINE RESINATE PARTICLES; AND USE OF PHENYLEPHRINE RESINATE PARTICLES IN PHARMACEUTICAL FORMULATIONS” (Johnson & Johnson Consumer Inc., priority 2014, published 2021).

For series [1] the following is noted: 30 mg dose administered orally over eight hours.
The conditions of series [2]: therapeutic dose.

For the compound `CNC[C@H](O)c1cccc(O)c1.Cl` [phenylephrine, (R)-1-(3-hydroxyphenyl)-2-methylaminoethanol], in series [1], the “metabolized to m-hydroxy-phenylglycol-sulfate, % of the dose” value is 6%; the “metabolized to m-hydroxymandelic acid, % of the dose” value is recorded as 30%; the “metabolized to phenylephrine-glucuronide, % of the dose” value is 12%; the “metabolized to phenylephrine-sulfate, % of the dose” value is 47%.
For the compound `CC(=O)Nc1ccc(O)cc1` [acetaminophen, Acetaminophen], in series [2], the “excreted unchanged in the urine, % of dose” value is listed as “Less than 9%”.
